Measured values taken from patent US20100015126A1, “Methods of Binding of Cross-Beta Structures By Chaperones” (priority 2006, published 2010).

Legend:
[1] = test system: HUVECs; assay: Adhesion of HUVECs to immobilized misfolded proteins under influence of BiP (LDH read-out); type: cell-based, human; conditions: for Number of adhered HUVECs after preincubation of coated protein with BiP: BiP approximately 200 μg/ml
Experimental: HUVECs are primary endothelial cells (ECs), isolated from umbilical cords using 0.1% collagenase (Sigma, C0130, 100 mg, dissolved in 100 ml M199 medium supplemented with 10% FCS (Gibco 10106-169) and Penicillin-Streptomycin (P/S, Gibco, 15140-122)), according to widespread used standard procedures known to a person skilled in the art. HUVECs have the typical features of ECs, e.g. cobblestone morphology and von Willebrand factor storage in Weibel-Palade bodies. HUVECs can regularly be cultured up to passage 5; beyond passage 5 HUVECs loose typical EC markers. The isolation is described here in brief. The umbilical cord is washed for less than 3 minutes in ethanol and subsequently with PBS. The vein is connected to canules and flushed with 10 ml PBS, followed by loading with the 0.1% collagenase solution. After a 15 minute-incubation at 37° C., the detached endothelial cell suspension is recovered by flushing the vein with 10 ml medium which is subsequently added to the collagenase solution. The EC suspension is centrifuged for 5 minutes at room temperature, at low g-force. Supernatant is discarded and the cell pellet is resuspended in 5 ml ‘rich medium’ (EGM-2; Endothelial basal medium (EBM-2, Cambrex, CC-3156) and Singlequots containing supplements for endothelial cells (Cambrex, CC-4176)). Cells (passage 0, P0) are seeded in a culture flask coated with 0.5% gelatin (Sigma, G1393). To facilitate the adhesion of the endothelial cells, human fibronectin is added to the cell culture at a final concentration of 2 μg/ml. EC's are cultured at 37° C., at 5% CO2. The cell culture medium is refreshed every 2-3 days up to when the cells grow to confluency. Then, with the addition of trypsin-EDTA, the cells are detached from the flask, centrifuged at low g-force, resuspended in rich medium and seeded in larger 0.5% gelatin-precoated cell culture flasks.
In 96-wells plates (Immulon high-binding plates, Thermo Labsystems 3355) proteins, i.e. BSA-AGE, control BSA, IgIV Gammagard, crossbeta dIgIV-86 at 5 μg/ml, 10 μg/ml misfolded oxLDL, or gelatin (Sigma G1393, 2% solution in H2O or PBS, positive control for adhesion to ECs) were coated using 100 μl solutions, in six wells for each condition. Following incubation for 2 hours at 37° C. the solutions were discarded and the wells blocked for 1 hour at 37° C. with 100 μl/well of 1% polyvinyl-pyrrolidone (PVP, Sigma P5288) in PBS, filter (0.22 μm) sterilized. […] Subsequently, the block solution was discarded. Next, the plates were incubated with 40 μl RPMI 1640 medium (Gibco, 52400) and 10 μl of the potential inhibitor, i.e. recombinant human BiP at approximately 200 μg/ml final concentration. HUVECs were obtained by trypsinization. […] The absorbance at 490 nm was measured on a Versamax microplate reader at various time points.

[2] = molecular target: T1, recombinant human HSP90beta (Homo sapiens, UniProt P08238); assay: Competition ELISA: HSP90 binding under influence of crossbeta binding compounds and geldanamycin; conditions: 20 μg/ml HSP90, geldanamycin 10 μM; for Binding of HSP90 to coated Aβ25-35 under influence of compound: sRAGE 79 μg/ml, HSA 10 μM
T1 construct: purchased Dr. S. Rüdiger, Cellular Protein Chemistry, Utrecht University
T1 sequence (P08238 whole entry): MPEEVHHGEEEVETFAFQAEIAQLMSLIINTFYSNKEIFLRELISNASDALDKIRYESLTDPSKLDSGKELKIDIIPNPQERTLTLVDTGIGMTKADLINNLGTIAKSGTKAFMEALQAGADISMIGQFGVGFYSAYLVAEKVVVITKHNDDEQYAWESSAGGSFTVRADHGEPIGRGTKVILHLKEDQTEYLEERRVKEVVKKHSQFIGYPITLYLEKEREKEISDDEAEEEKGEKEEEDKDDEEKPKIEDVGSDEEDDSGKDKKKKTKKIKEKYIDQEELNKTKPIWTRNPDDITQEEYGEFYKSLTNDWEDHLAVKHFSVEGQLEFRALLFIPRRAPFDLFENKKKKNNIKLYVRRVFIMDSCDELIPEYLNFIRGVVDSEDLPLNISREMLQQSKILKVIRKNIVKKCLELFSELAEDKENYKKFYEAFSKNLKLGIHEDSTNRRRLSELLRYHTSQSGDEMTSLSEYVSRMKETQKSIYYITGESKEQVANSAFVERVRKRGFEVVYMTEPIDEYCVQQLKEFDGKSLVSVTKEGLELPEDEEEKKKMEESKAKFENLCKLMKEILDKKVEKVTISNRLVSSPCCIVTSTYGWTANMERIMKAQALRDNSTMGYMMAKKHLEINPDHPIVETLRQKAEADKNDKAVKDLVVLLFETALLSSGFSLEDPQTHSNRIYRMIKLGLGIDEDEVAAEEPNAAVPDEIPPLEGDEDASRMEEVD
Experimental: Binding of chaperones to immobilized (misfolded) protein ligands was determined using an enzyme linked immuno sorbent assay (ELISA) approach. For this purpose 50 μl/well of potential ligands at indicated concentrations or coat buffer only for control and background measurement purposes, were coated overnight at 4° C. or coated for 1 h at room temperature, with motion, in 50 mM NaHCO3 pH 9.6 (coat buffer). In general, ligands were coated at 5 μg/ml, unless stated otherwise. […] Native haemoglobin (Sigma-Aldrich, H7379), albumin, IgIV Gammagard and ovalbumin controls were prepared from lyophilized stocks. The controls were prepared by dissolving lyophilized proteins at 1 mg/ml in PBS upon resuspending by pipetting, followed by a 30 minutes period at the roller device, at room temperature. The protein solutions were centrifuged for 10 minutes at 16,000*g and diluted in coat buffer. […] Plates were washed three times and incubated in triplicate with indicated chaperone dilution series, at 50 μl/well, for 1 h at room temperature, with constant motion. For HSP90, 5 mM DTT is incorporated in the binding buffer (PBS/0.1% Tween20) to avoid unwanted disulfide bond formation of the HSP90. […] After four wash cycles, secondary antibodies were added to the wells when required, 50 μl/well, for 45′ at room temperature, with motion. RAMPO and SWARPO were used at 3000 times dilution. […] In a second experiment with more immobilized misfolded proteins and controls, the detection of bound HSP90 with the mix of two anti-HSP90 antibodies was achieved by mixing 1:1500 SWARPO with 1:3000 RAMPO. After 5 washes with wash buffer followed by two washes with PBS, binding of antibodies was assessed. […] The reaction was stopped after 5 minutes with 1% H2SO4 in H2O. Plates were read at 450 nm. Triplicates were averaged and standard deviations calculated. Background signals obtained with buffer-coated wells were subtracted (binding of primary antibody to empty wells), as well as background signals obtained with ligand-coated wells in which the chaperones were omitted (binding of primary and secondary antibody to coated ligands). Subsequently, sub-optimal concentrations of chaperones for binding to misfolded protein ligands are determined, and these concentrations are used for inhibition studies.

| Compound | Number of adhered HUVECs after preincubation of coated protein with BiP [1] | Adhesion of HUVECs to coated protein ([1]; without BiP, LDH activity after lysis) | Binding of HSP90 to coated HbAGE under influence of compound [2] | Binding of HSP90 to coated Aβ25-35 under influence of compound [2] |
| --- | --- | --- | --- | --- |
| native BSA: non-modified bovine serum albumin control | hardly increase |  |  |  |
| BSA-AGE | hardly increase | to a similar extent as to gelatin |  |  |
| Nc1c(/N=N/c2ccc(-c3ccc(/N=N/c4cc(S(=O)(=O)O)c5ccccc5c4N)cc3)cc2)cc(S(=O)(=O)O)c2ccccc12 [Congo red] |  |  | inhibited | stimulatory activity |
| Cc1ccc2c(c1)sc(-c1ccc(N(C)C)cc1)[n+]2C.[Cl-] [ThT, Thioflavin T] |  |  | had no influence | stimulatory activity |
